{"source": "patent US11179348B2", "about": "“Combination comprising pterostilbene for the treatment of cancer” (FUNDACIÓN UNIVERSIDAD CATÓLICA DE VALENCIA SAN VICENTE …, priority 2015, dated 2021)", "key": {"SK-OV-3 cells": {"tested_on": "SK-OV-3 cells", "assay": "GSH levels and glutathione- and oxidative stress-related enzyme activities in SK-OV-3 cells growing in vivo", "set-up": "species or system human", "settings": "SK-OV-3, in vivo Pter, day 49", "protocol": "(§1) To measure enzyme activity, isolated tumor cells were homogenized in 0.1 M phosphate buffer (pH 7.2) at 4° C. GCL and GSS activities were measured as described previously (Obrador, E. et al. Hepatology 35, 74-81 (2002)). GPX (selenium dependent) activity was measured as described by Flohé and Gunzler (Flohe, L. & Gunzler, W. A. Methods Enzymol 105, 114-121 (1984)) using H2O2 as a substrate. GSR activity was determined as described by Akerboom and Sies (Akerboom, T. P. et al, Bull Eur Physiopathol Respir 17 Suppl, 221-227 (1981)). GGT activity was measured as described previously (Obrador, E. et al. Hepatology 35, 74-81 (2002)). GST activity was measured using an assay kit from Sigma. TXNRD activity, defined by the concentration of sodium-lipoate (disulfide) reduced to dehydrolipoate (dithiol) per milligram protein, was measured as previously described (Javvadi, P. et al. Cancer Res 70, 1941-1950 (2010)). SOD activity was measured as described by Flohé and Otting (Flohe, L. & Otting, F. Methods Enzymol 105, 93-104 (1984).) using 2 mM cyanide in the assay medium to distinguish mangano-type enzyme (SOD2) from the cuprozinc type (SOD1). CAT activity was analyzed as described by Aebi (Aebi, H. Methods Enzymol 105, 121-126 (1984)). NOX activity was measured by chemiluminescence following the methodology of Wind et al. (Wind, S. et al. Comparative pharmacology of chemically distinct NADPH oxidase inhibitors. Br J Pharmacol 161, 885-898 (2010)). Protein concentration was determined with the Pierce BCA protein assay (Fisher Scientific, Waltham, Mass.).\n(§2) GSH, GSSG, NADP^+ and NADPH Determination.\n(§3) GSH and GSSG were determined, following procedures previously described (Obrador, E. et al. PLoS One 9, e96466 (2014)), by LC/MS using the same equipment described above for pterostilbene determination. Cell processing was performed according to published methodology, where rapid N-ethylmaleimide derivatization was used to prevent GSH auto-oxidation (Asensi, M. et al. Anal Biochem 217, 323-328 (1994)). NADP^+ and NADPH were quantitated using an assay kit from Sigma (St. Louis, Mo.).\nIsolation of Tumor Cells from Mouse Xenografts Using Enzymatic Digestion and a double Ficoll gradient.\nTo maximize the amount of isolated cells, avoiding the use of RFP-transfected cells and subsequent laser microdissection, an alternative methodology was set up. To maximize cell yield and viability the following combination of enzymes was used: collagenase III (200 U/ml; Sigma-Aldrich), DNase I (200 U/ml; Sigma-Aldrich) and trypsin (5 mg/ml; Invitrogen), and a non-enzymatic dissociation buffer (NEDB, Invitrogen). Briefly, mice were killed, and tumors were removed (avoiding skin, muscle and fat) into cold culture media and processed immediately. The tumors were minced into 1-3 mm fragments, which were then incubated with the dissociation solution (see above) for 30 min at 37° C. The tumor fragments were mixed up and down every 10 min using a […] micropipette with a tip cut to a diameter adapted to tissue fragment size. After each incubation period, the fragments were filtered through a […] nylon mesh cell strainer (BD Biosciences, San Diego, Calif., USA). The released cells were centrifuged at 1200 r.p.m. for 2 min and stored in cold CO2-independent medium with 30% FCS at […]. Fresh dissociation solution was added to the remaining tissue fragments for 30 min. Dissociation was stopped when no additional cells were released. The fragments were pushed through a sieve and all cells from all incubation periods were pooled and counted.\nThe dissociated cells were layered onto a double Ficoll gradient (Histopaque; Sigma-Aldrich; densities 1.077 and 1.119) and spun at 700 g for 30 min at room temperature. Cells removed from both interfaces were pooled and washed two times in CO2-independent medium and stored at 4° C. Debris and red blood cell elimination was improved with the dual-density gradient. […]"}, "MeWo melanoma cells": {"tested_on": "MeWo melanoma cells", "assay": "Nrf2- and redox state-related enzyme activities and metabolites in MeWo cells growing in vivo", "set-up": "species or system human", "settings": "in vivo +Pter, day 35", "protocol": "Transfection of the Red Fluorescence Protein.\nFirst the pDsRed-2 vector (Clontech Laboratories Inc., Palo Alto, Calif.) was used, as previously described for A375 melanoma cells (Mena, S. et al. J Transl Med 10, 8 (2012)), to engineer A2058, MeWo and MelJuso melanoma clones stably expressing the RFP. Isolation of A2058-RFP, MeWo-RFP or MelJuso-RFP cells from the growing xenografts was performed by laser microdissection and high-performance cell sorting as previously described in detail (Mena, S. et al. J Transl Med 10, 8 (2012)).\nas §1\nMeasurement of H2O2 and O2^⋅−.\nQuantitative measurement of H2O2 and flow cytometry determination of O2^⋅− generation were performed as previously described (Benlloch, M. et al. J Biol Chem 281, 69-79 (2006)).\nas §2, §3"}, "A549 human lung cancer": {"tested_on": "A549 human lung cancer", "settings": "20 μM Pter, 24 h, in vitro; cited from earlier work"}}, "data": [{"smiles": "COc1cc(/C=C/c2ccc(O)cc2)cc(OC)c1", "note": "[Pter, trans-3,5-dimethoxy-4′-hydroxystilbene]", "values": [{"measurement": "CAT", "setting": "SK-OV-3 cells", "result": "1.8 ± 0.4", "unit": "mU/10^6 cells"}, {"measurement": "GCL", "setting": "SK-OV-3 cells", "result": "18 ± 6", "unit": "mU/10^6 cells"}, {"measurement": "GSH", "setting": "SK-OV-3 cells", "result": "1.5 ± 0.7", "unit": "nmol/10^6 cells"}, {"measurement": "GSS", "setting": "SK-OV-3 cells", "result": "1.6 ± 0.4", "unit": "mU/10^6 cells"}, {"measurement": "GSSG", "setting": "SK-OV-3 cells", "result": "0.2 ± 0.05", "unit": "nmol/10^6 cells"}, {"measurement": "SOD1", "setting": "SK-OV-3 cells", "result": "0.1 ± 0.03", "unit": "U/10^6 cells"}, {"measurement": "SOD2", "setting": "SK-OV-3 cells", "result": "0.01 ± 0.005", "unit": "U/10^6 cells"}, {"measurement": "CAT", "setting": "MeWo melanoma cells", "result": "1.6 ± 0.4", "unit": "mU/10^6 cells"}, {"measurement": "G6PDH", "setting": "MeWo melanoma cells", "result": "266 ± 39", "unit": "mU/10^6 cells"}, {"measurement": "GCL", "setting": "MeWo melanoma cells", "result": "35 ± 12", "unit": "mU/10^6 cells"}, {"measurement": "GGT", "setting": "MeWo melanoma cells", "result": "16.0 ± 2.4", "unit": "mU/10^6 cells"}, {"measurement": "GPX", "setting": "MeWo melanoma cells", "result": "2.8 ± 1.0", "unit": "mU/10^6 cells"}, {"measurement": "GSH", "setting": "MeWo melanoma cells", "result": "7.3 ± 1.7", "unit": "nmol/10^6 cells"}, {"measurement": "GSH/GSSG", "setting": "MeWo melanoma cells", "result": "73 ± 11"}, {"measurement": "GSR", "setting": "MeWo melanoma cells", "result": "4.9 ± 1.2", "unit": "mU/10^6 cells"}, {"measurement": "GSS", "setting": "MeWo melanoma cells", "result": "7.4 ± 1.6", "unit": "mU/10^6 cells"}, {"measurement": "GSSG", "setting": "MeWo melanoma cells", "result": "0.1 ± 0.03", "unit": "nmol/10^6 cells"}, {"measurement": "GST", "setting": "MeWo melanoma cells", "result": "6.5 ± 1.3", "unit": "mU/10^6 cells"}, {"measurement": "H2O2", "setting": "MeWo melanoma cells", "result": "0.7 ± 0.2", "unit": "nmol/10^6 cells × min"}, {"measurement": "IDH", "setting": "MeWo melanoma cells", "result": "1.5 ± 0.4", "unit": "U/10^6 cells"}, {"measurement": "ME", "setting": "MeWo melanoma cells", "result": "32 ± 11", "unit": "mU/10^6 cells"}, {"measurement": "NADPH", "setting": "MeWo melanoma cells", "result": "0.05 ± 0.002", "unit": "nmol/mg prot"}, {"measurement": "NADPH/NADP^+", "setting": "MeWo melanoma cells", "result": "1.2 ± 0.2"}, {"measurement": "NADP^+", "setting": "MeWo melanoma cells", "result": "0.04 ± 0.01", "unit": "nmol/mg prot"}, {"measurement": "NOX", "setting": "MeWo melanoma cells", "result": "132 ± 25", "unit": "R.L.U./10^6 cells"}, {"measurement": "O2^−", "setting": "MeWo melanoma cells", "result": "3.5 ± 0.7 ΔFL1, a.u."}, {"measurement": "SOD1", "setting": "MeWo melanoma cells", "result": "0.5 ± 0.2", "unit": "U/10^6 cells"}, {"measurement": "SOD2", "setting": "MeWo melanoma cells", "result": "0.1 ± 0.05", "unit": "U/10^6 cells"}, {"measurement": "TXN", "setting": "MeWo melanoma cells", "result": "0.8 ± 0.2", "unit": "μg/10^6 cells"}, {"measurement": "TXNRD", "setting": "MeWo melanoma cells", "result": "0.9 ± 0.2", "unit": "U/10^6 cells"}, {"measurement": "decrease in tumor cell viability", "setting": "A549 human lung cancer", "result": "~40", "unit": "%"}]}]}
